How the values were obtained:
[1] = test system: ARC CSPG-ECM; assay: Intranasal PZ6005 in diet-induced obese mice: WFA immunostaining of CSPG-ECM within the ARC; format: in vivo, mouse; conditions: 14 days; for ARC CSPG-ECM area, lower than the controls / ARC CSPG-ECM intensity, decrease: 12-week-HFHS-diet-fed obese mice
Protocol: For detection of aggrecan, GFP, HABP, parvalbumin, mCherry, versican, tenascin-C, HAPLN1, neurocan, phosphacan, brevican, WFA and WFA-FITC sections were incubated at room temperature for 1 h in blocking buffer (0.3% Triton X-100, 5% normal goat serum, Gibco, ThermoFisher, MA, 0.02% sodium azide) and then overnight at 4° C. in 1% blocking buffer containing either rabbit anti-aggrecan (1:1000, AB1031, Millipore, MA), chicken anti-GFP (1:2000; ab13970, Abcam, Cambridge, UK), Biotinylated HABP (1:100, 385911, Burlington, MA), sheep anti-parvalbumin (1:1000), in house), rabbit anti-dsRed (1:2000, 600-401-379, Rockland, PA), rabbit anti-versican (1:1000, AB1033, Millipore, MA), tenascin-C (1:500, M1-B4, Developmental Studies Hybridoma Bank, Iowa), HAPLN1 (1:500, 9/30/8-A-4, Developmental Studies Hybridoma Bank, Iowa), neurocan (1:300, 1F6-S, Developmental Studies Hybridoma Bank, Iowa), phophacan (1:300, 3F8, Developmental Studies Hybridoma Bank, Iowa), brevican (1:500, 610895, BD Transduction Laboratories), biotinylated WFA (1:2000, L1516; Sigma-Aldrich, MO), WFA-FITC (1:2000, FL-1351-2, Vector Laboratories, CA), rabbit anti PGP9.5 (1:1000, 14730-1-AP, Proteintech, IL), guinea pig anti AgRP (1:500, AS506, Antibodies Australia, Melbourne, AUS). After washing with PBS-T (0.3% Triton X-100 in PBS, +0.02% sodium azide), sections were incubated with goat anti-chicken Alexa Fluor 488 (ab150169, Abcam, Cambridge, UK), goat anti-rabbit Alexa Fluor-488, 595, 647 (ab150077, ab150080, ab150083, Abcam, Cambridge, UK), donkey anti-sheep Alexa Fluor 594 (ab150180, Abcam, Cambridge, UK), Alexa Fluor 594, 647 Streptavidin (405240, BioLegend, CA)—conjugated secondary antibodies in 5% blocking buffer for 2 h at room temperature. […] Brightness and contrast in the colour merged images have been adjusted to aid in the analysis of co-incidence.
All image quantification was performed in Image J (NIH) software (NIH, MA). Raw images underwent background subtraction using a rolling ball algorithm to minimize background and any potential variance in tissue autofluorescence. To quantify area and intensity of the CSPG-ECM within each brain region (ARC, VMH or RSG cortex) images were thresholded and binarized to create a region of interest (ROI) mask of only the CSPG-ECM. For each brain area, CSPG-ECM ROI area (μm^2) and intensity (sum of all pixel intensities within the ROI) was calculated. This process was automated to minimise bias and to account for differences in brain nuclei size across multiple images. Brain nuclei were defined in accordance with the Paxinos and Franklin mouse brain atlas (http://labs.gaidi.ca/mouse-brain-atlas/). The area and intensity of CSPG-ECM within each region was normalised to the respective control.
(§1) Conscious mice were restrained by scruffing and inverted parallel to the floor with the chin at ˜180-degree angle with the neck. Using a 10 μL tip, a pipettor was loaded with 5 μl of vehicle (ddH2O) or fluorosamine (1 mg/animal in 20 μl or 5 mg/animal in 20 μl). The tip of the filled pipettor was placed near the left nostril at a 45-degree angle, and the drug was ejected to form a small 5 μl droplet at tip for the mouse to inhale. Immediately after the mouse inhaled the first droplet the remaining solution was ejected to form another small droplet for the mouse to inhale through the same nostril. The mouse was held in this position for 15 seconds before the procedure was repeated in the right nostril.

[2] = Intranasal PZ6005 in obese mice: I.P. GTT, ITT and fasting glucose; format: in vivo, mouse
Protocol: Metabolic measurements were undertaken in the Melbourne Mouse Metabolic Phenotyping Platform (The University of Melbourne, Australia). Glucose tolerance tests were performed on 6 h fasted conscious mice respectively by injecting D-glucose (2 mg/g of lean body mass and 1 mg/g lean mass for db/db and HFHS+STZ mice) into the peritoneal cavity and measuring glucose in tail blood immediately before and at 15, 30, 45, 60, 90 and 120 min after injection using an Accu-Check glucometer (Roche, Germany). The areas under glucose excursion curves were determined and expressed as mmol/1×min. Fasted (12 h fast) plasma insulin or glucose levels were determined using a Rat/Mouse Insulin ELISA (EZRMI-13K, Merck Millipore, CA) or an Accu-Check glucometer respectively. The HOMA-IR was calculated using the equation [(glucose×insulin)/405]. Adiposity was measured using TD-NMR minispec (Bruker Optics Inc., Billerica, MA).
as §1, with “right nostril. The mouse was returned to the cage for 2 minutes and the process was repeated so that each mouse received four droplets of 5 μl each, delivering a total of 20 μl of solution. All drugs were administered delivered approximately 1 h before lights off […].” for “right nostril.”
Obese mice intranasally receiving either vehicle or PZ6005 (1 or 5 mg/animal/day) were subjected to I.P. GTT after 6 hrs fasting period and I.P. insulin tolerance test (ITT) after 4 hrs fasting period.

SMILES: CC(=O)NC1C(OC(C)=O)OC(COC(C)=O)[C@@H](F)C1OC(C)=O (stereo partly drawn) [fluorosamine, per-O-acetylated-4-F-N-acetylglucosamine]
- ARC CSPG-ECM area, lower than the controls ([1]; I.N. 1 mg/animal/day): 13.54±1.03%
- ARC CSPG-ECM intensity, decrease ([1]; I.N. 1 mg/animal/day): 15.94±7.17%
- ARC CSPG-ECM intensity, decrease ([1]; I.N. 5 mg/animal/day (highest dose)): 30.16±1.52%
- ARC CSPG-ECM area, lower than the controls ([1]; I.N. 5 mg/animal/day): 13.59±4.09%
- ARC neurofibrosis ([1]; intranasal, diet-induced obese mice, dose not given): successfully attenuated ARC neurofibrosis
- glucose clearance rate vs 1 mg treatment group and controls ([2]; I.N. 5 mg, after 60 mins of I.P. glucose in GTT and after 0 mins of I.P. insulin): significantly higher glucose clearance rate
- insulin sensitivity (ITT) ([2]; I.N. 1 or 5 mg/animal/day, obese mice): enhanced insulin sensitivity
- glucose tolerance (glucose excursion in GTT and ITT) ([2]; I.N. 1 or 5 mg/animal/day, obese mice, vs control littermates): better glucose tolerance than control littermates
- fasting (12 hrs) glucose level ([2]; both doses of intranasal treatment (1 or 5 mg/animal/day)): Reduction
